Assay results from US9629834B2, “Medicinal composition for inhibiting formation and/or enlargement of cerebral aneurysm or shrinking same” (KYOTO UNIVERSITY, priority 2013, dated 2017).

Assays:
[1] = tested on: lymphocytes in peripheral blood; assay: Lymphopenic action in cerebral aneurysm model; format: in vivo, SD rat; settings: 0.03 mg/5 mL or 0.1 mg/5 mL suspension, 5 mL/kg, forced oral, once a day, Day 1 to Day 27; blood collected Day 28; FIG. 2
Protocol: A rat model of cerebral aneurysm was prepared according to the method disclosed on the literature by Hashimoto et al. (Surgical Neurology 1978, Vol. 10, p. 3-8). Namely, 50 mg/kg of pentobarbital was administrated intraperitoneally to a 7-week-old male SD rat, and the left common carotid artery and the left renal artery were ligated by using 10-0 nylon thread under anesthesia (this is referred to as the surgery for inducing cerebral aneurysm). From the day after surgery (Day 1), the rat was reared with being fed a high-salt diet. During a rearing period, the rat was given free access to water. Forced oral administration of 0.03 mg/5 mL or 0.1 mg/5 mL of the suspension of Compound 1 to the cerebral aneurysm model was conducted once a day at a dose of 5 mL/kg from 1 day after surgery (Day 1) to 27 days after surgery (Day 27). It should be noted that forced oral administration of the 0.5% MC solution (0 mg/5 mL of the suspension of Compound 1) to the cerebral aneurysm model was conducted once a day at a dose of 5 mL/kg. The group of these rats was defined as a vehicle group. […] The number of lymphocytes in the collected blood was counted by using a blood test system (Advia 120, Siemens Healthcare Diagnostics) according to the manual of the system.

[2] = tested on: MCP-1; assay: Suppression of expression of MCP-1 at cerebral artery bifurcation (immunostaining); format: in vivo, SD rat; settings: vs group without drug, FIG. 4
[3] = tested on: cerebral aneurysm model; assay: Inhibitory effect on formation of cerebral aneurysm in cerebral aneurysm model (EvG staining, size of aneurysm); format: in vivo, SD rat; settings: 0.03 mg/5 mL or 0.1 mg/5 mL suspension, 5 mL/kg, forced oral, once a day, Day 1 to Day 27; Day 28; FIG. 5
Protocol: A rat model of cerebral aneurysm was prepared according to the method disclosed on the literature by Hashimoto et al. (Surgical Neurology 1978, Vol. 10, p. 3-8). Namely, 50 mg/kg of pentobarbital was administrated intraperitoneally to a 7-week-old male SD rat, and the left common carotid artery and the left renal artery were ligated by using 10-0 nylon thread under anesthesia (this is referred to as the surgery for inducing cerebral aneurysm). From the day after surgery (Day 1), the rat was reared with being fed a high-salt diet. During a rearing period, the rat was given free access to water. Forced oral administration of 0.03 mg/5 mL or 0.1 mg/5 mL of the suspension of Compound 1 to the cerebral aneurysm model was conducted once a day at a dose of 5 mL/kg from the day after surgery, i.e., 1 day after surgery (Day 1) to 27 days after surgery (Day 27). It should be noted that forced oral administration of the 0.5% MC solution (0 mg/5 mL of the suspension of Compound 1) to the cerebral aneurysm model was conducted once a day at a dose of 5 mL/kg. The group of these rats was defined as a vehicle group. 28 Days after surgery (Day 28), the right olfactory artery/anterior cerebral artery bifurcation containing cerebral aneurysm was extirpated and was fixed with 4% paraformaldehyde, and then the solution was replaced with a 30% sucrose solution, and thereafter, the extirpated bifurcation was frozen to prepare a specimen of a frozen section having a thickness of 5 μm, by similar procedures to the steps 1) and 2) of the method of Reference Example 2. This specimen was subjected to EvG staining and the formation of cerebral aneurysm was confirmed. The size of cerebral aneurysm was measured and evaluation was conducted. The maximum diameter (Maximum) represents the maximum distance between internal elastic lamina disruption sites observed by EvG staining, the height “Height” represents the maximum value of height defined as the length of the perpendicular line drawn from the line connecting the two ends of internal elastic lamina, and the mean diameter “Mean” represents the mean value of the maximum diameter and the height. This evaluation was conducted on all the rats (8 or 9 rats) of each of the groups, and the mean value of each of the groups was calculated. The administration of 0.1 mg/5 mL of a suspension of Compound 2 to the cerebral aneurysm model was started on the day of the surgery (Day 0) at a dose of 5 mL/kg, and forced oral administration was conducted once a day until 26 days after surgery (Day 26). The size of cerebral aneurysm was measured by using the protocol of Example 1. […] The size of cerebral aneurysm was measured by using the protocol of Example 1. […] The size of cerebral aneurysm was measured by using the protocol of Example 1.

[4] = tested on: Human carotid artery endothelial cells HCtAEC; assay: Permeability of endothelial cells (Transwell, FITC-dextran); format: cell-based; settings: 0.1 nM, 1 nM, 10 nM, or 100 nM; 60 minutes pre-culture; fluorescence after 5, 60 and 210 minutes; FIG. 14
Protocol: Human carotid artery endothelial cells […] (Cell Applications) were seeded in the upper compartment of Transwell (diameter: 6.5 mm, pore size: 0.4 μm, collagen-Coated: Corning) so that the cell density was 1×10^5 cells/well, and the cells were cultured overnight in MesoEndo Growth Medium (Cell Applications) under a 5% CO2 atmosphere at 37° C. The medium was replaced with Endothelial Cell Serum-Free Defined Medium (Cell Applications), and the cells were further cultured overnight under the CO2 atmosphere at 37° C. Then, Compound 1 was added to the upper compartment and the lower compartment of Transwell so that the final concentration was 0 nM, 0.1 nM, 1 nM, 10 nM, or 100 nM, and the cells were cultured continuously. The well to which Compound 1 was not added was defined as a control. After culturing for 60 minutes, 250 μg/mL of fluorescein isothiocyanate (FITC)-dextran (2,000 kDa: Sigma-Aldrich) was added to the upper compartment of Transwell, and the amount of FITC-dextran which permeated into the lower compartment was determined by measuring the fluorescence intensity of the medium in the lower compartment after 5 minutes, 60 minutes, and 210 minutes.

C[C@H](Oc1ccc(-c2nc(-c3ccc4[nH]cnc4c3)no2)cc1C(F)(F)F)C(F)(F)F.Cl [Compound 1, 5-{5-[3-(trifluoromethyl)-4-{[(2S)-1,1,1-trifluoropropan-2-yl]oxy}phenyl]-1,2,4-oxadiazol-3-yl}-1H-benzimidazole hydrochloride]
number of lymphocytes in peripheral blood [1]: decreased the number of lymphocytes in peripheral blood in a concentration-dependent manner | expression of MCP-1 in cerebral aneurysm walls ([2]; 0.03 mg/kg oral once a day): suppressed as compared to the group without being administered a drug | expression of MCP-1 in cerebral aneurysm walls ([2]; 0.1 mg/kg oral once a day): suppressed as compared to the group without being administered a drug | formation of cerebral aneurysm (size: Maximum, Height, Mean) [3]: inhibited the formation of cerebral aneurysm | amount of FITC-dextran which permeated into the lower compartment (permeability of endothelial cells) [4]: decreased the amount of FITC-dextran which permeated into the lower compartment in a concentration-dependent manner
